The source of these data is US4409388A, “1,2,4-Triazole derivatives, and their use as antifertility agents” (Gruppo Lepetit S.p.A., priority 1978, dated 1983).

For orientation: ED50 means the dose that gives a 50% effect, or the effect in half of the subjects.

The structures appear in SMILES notation.

For test [1], the system named is female Syrian golden hamsters. Briefly: post-coital/post-implantation antifertility activity, subcutaneous, pregnant hamsters. As to conditions: days 4-8 of pregnancy; for activity according to the criteria (reduction of live fetuses in at least 60% of the treated animals): 10 mg/kg s.c. daily for 5 days, hamsters; for ED50: Mesocricetus auratus, sc, 120 h, s.c. hamsters, daily for 5 days, sesame oil, read-out: ED50 (100% activity, absence of live fetuses, in 50% of the animals). It counts as in vivo. The protocol:
(§1) Representative experiments for assessing antifertility activity were carried out with female Syrian golden hamsters weighing 100 to 130 g. The animals were mated and the presence of sperm in the vagina was taken as evidence of mating. The day sperm was detected and considered day one of pregnancy, since in our laboratories and those of other investigators 90 to 100% of animals that mate as evidenced by vaginal sperm are pregnant.
(§2) Pregnancy was later confirmed at the time of autopsy by presence of fetuses or implantation sites in the uterus.
(§3) Even if an animal aborts the fetus, implantation scars still remain as evidence that the animal has been pregnant.
The animals were autopsied on day 14 of pregnancy and the uteri were examined for evidence of pregnancy (implantation sites, fetal resorptions or live fetuses), hemorrage, and evidence of abnormalities of the uterus, placenta or fetuses.

The test system of test [2] is hamsters. In words: antifertility activity, oral route, pregnant hamsters. The format is in vivo, Syrian golden hamsters. As to conditions: for reduction of live fetuses: oral dosage of 20 mg/Kg, hamsters. The protocol: as §1, §2, §3
The animals were autopsied on day 14 of pregnancy and the uteri were examined for evidence of pregnancy (implantation sites, fetal resorptions or live fetuses), hemorrage, and evidence of abnormalities of the uterus, placenta or fetuses. A compound was considered to be active if there was a reduction of live fetuses in at least 60% of the treated animals and the presence of implantation sites proves the animal to have been pregnant. […] The compounds were then studied for dose-activity relationships and the corresponding ED50 values i.e., 100% activity (absence of live fetuses) in 50% of the animals, were also determined. The following table reports the ED50 values of some representative compounds of the invention:
Favorable results were also obtained by administering the compounds of the invention by oral route. The experiments for assessing this property were carried out on hamsters following the same procedure as above, with the obvious exception that the compounds were administered orally instead of subcutaneously.

With `COc1cccc(-c2n[nH]c(-c3ccccc3CO)n2)c1` [Example 1, 5-(2-hydroxymethylphenyl)-3-(3-methoxyphenyl)-1H-1,2,4-triazole], in test [1], the “activity according to the criteria (reduction of live fetuses in at least 60% of the treated animals)” value is “active” and the ED50 was 0.08 mg/kg. In test [2] (Mesocricetus auratus, po, 120 h, p.o. hamsters, daily for 5 days, days 4-8 of pregnancy), this compound gave an ED50 of 10 mg/kg. Also, the “reduction of live fetuses” value in test [2] is given as “about 60%”.

With `COc1cccc(-c2nc(-c3ccccc3C=O)n[nH]2)c1` [Example 3, 2-[5-(3-methoxyphenyl)-1H-1,2,4-triazol-3-yl]benzaldehyde], in test [1], the “activity according to the criteria (reduction of live fetuses in at least 60% of the treated animals)” value is on record as “active” and the median effective dose (ED50) worked out at 0.1 mg/kg. Besides, in test [2], the “reduction of live fetuses” value was “about 60%”.
